Measurements from patent US11795165B2, “Tetrahydro-benzoazepine glycosidase inhibitors” (Asceneuron SA, priority 2018, dated 2023).

Target: His-Tagged hOGA (human O-GlcNAcase) (Homo sapiens (Human), UniProt O60502)
Test: Human O-GlcNAcase enzyme inhibition assay (OGA enzyme inhibition assay)
Type: biochemical
Details: His-Tagged hOGA 20 nM, FL-GlcNAc 10 μM, 60 min at room temperature, pH 6.5; activity classes
Experimental: Example B01: Human O-GlcNAcase Enzyme Inhibition Assay
5 μl of the appropriate concentration of a solution of inhibitor in McIlvaine's Buffer (pH 6.5) in 2% DMSO (for a dose response curve calculation) is added into each well of a 384-well plate (Greiner, 781900). Then, 20 nM of His-Tagged hOGA and 10 μM of FL-GlcNAc (Fluorescein mono-beta-D-(2-deoxy-2-N-acetyl) glucopyranoside; Marker Gene Technologies Inc, M1485) were added to the 384-well plate for a final volume of 20 μl. After incubation for 60 min at room temperature, the reaction was terminated by the addition of 10 μL of stop buffer (200 mM glycine, pH 10.75). The level of fluorescence (Δexc 485 nm; (Δemm 520 nm) was read on a PHERAstar machine. The amount of fluorescence measured was plotted against the concentration of inhibitor to produce a sigmoidal dose response curve to calculate an IC50. All individual data was corrected by subtraction of the background (Thiamet 3 uM=100% inhibition) whilst 0.5% DMSO was considered as the control value (no inhibition).

His-Tagged hOGA (human O-GlcNAcase), sequence (O60502 whole entry): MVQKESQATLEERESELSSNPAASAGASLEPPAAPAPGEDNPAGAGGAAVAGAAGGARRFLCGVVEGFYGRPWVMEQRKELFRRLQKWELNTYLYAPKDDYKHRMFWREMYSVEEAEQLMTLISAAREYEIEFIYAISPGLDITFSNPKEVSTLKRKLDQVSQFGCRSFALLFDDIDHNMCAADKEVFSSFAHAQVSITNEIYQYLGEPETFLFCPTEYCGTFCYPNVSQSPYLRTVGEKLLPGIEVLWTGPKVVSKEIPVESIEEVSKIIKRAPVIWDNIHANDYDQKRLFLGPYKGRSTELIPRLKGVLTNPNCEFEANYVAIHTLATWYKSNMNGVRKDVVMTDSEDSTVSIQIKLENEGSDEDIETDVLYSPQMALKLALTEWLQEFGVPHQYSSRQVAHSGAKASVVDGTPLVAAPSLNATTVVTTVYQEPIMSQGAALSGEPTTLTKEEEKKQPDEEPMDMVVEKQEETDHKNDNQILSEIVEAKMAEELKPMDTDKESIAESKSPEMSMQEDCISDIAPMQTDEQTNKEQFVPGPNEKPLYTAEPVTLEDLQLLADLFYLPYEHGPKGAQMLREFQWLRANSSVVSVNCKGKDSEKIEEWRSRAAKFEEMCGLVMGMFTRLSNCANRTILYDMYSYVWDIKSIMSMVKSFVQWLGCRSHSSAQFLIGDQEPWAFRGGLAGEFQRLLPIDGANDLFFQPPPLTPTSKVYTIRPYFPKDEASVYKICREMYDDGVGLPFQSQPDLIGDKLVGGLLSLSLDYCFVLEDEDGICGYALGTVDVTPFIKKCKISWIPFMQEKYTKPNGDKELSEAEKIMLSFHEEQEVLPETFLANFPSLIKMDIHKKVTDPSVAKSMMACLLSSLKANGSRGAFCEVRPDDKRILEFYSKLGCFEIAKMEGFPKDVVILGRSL

IC50 [nM] | SMILES
50 to 200 | COc1ccc2c(c1Cl)CCN(C(C)c1ccc3scnc3c1)CC2 (racemic) [Example 10, 5-(1-(6-chloro-7-methoxy-1,2,4,5-tetrahydro-3H-benzo[d]azepin-3-yl)ethyl)benzo[d]thiazole]
< 50 | CC(c1ccc2scnc2c1)N1CCc2cc(N)cnc2CC1 (racemic) [Example 117]
< 50 | COc1cc2c(cc1Cl)CCN(C(C)c1ccc3scnc3c1)CC2 (racemic) [Example 11, 5-(1-(7-chloro-8-methoxy-1,2,4,5-tetrahydro-3H-benzo[d]azepin-3-yl)ethyl)benzo[d]thiazole]
200 to 1000 | CSc1ccc2c(c1)CCCN(C(C)c1ccc3scnc3c1)C2 (racemic) [Example 112]
< 50 | CC(c1ccc2scnc2c1)N1CCc2ccc(-c3cnn(C)c3)cc2CC1 (racemic) [Example 109]
< 50 | CC(c1ccc2scnc2c1)N1CCc2cc(NS(=O)(=O)C3CC3)cnc2CC1 (racemic) [Example 120]
1000 to 10000 | COc1ccc2c(c1)CCN(C(C)c1ccc3nsnc3c1)CC2 (single isomer, unassigned) [Example 3]
< 50 | CC(c1ccc2scnc2c1)N1CCc2cc(S(C)(=N)=O)cnc2CC1 (racemic) [Example 52]
< 50 | CC(c1ccc2scnc2c1)N1CCc2ccc(S(C)(=O)=O)cc2CC1 (racemic) [Example 18, 5-(1-(7-(methylsulfonyl)-1,2,4,5-tetrahydro-3H-benzo[d]azepin-3-yl)ethyl)benzo[d]thiazole]
200 to 1000 | CC(c1ccc2scnc2c1)N1CCc2ccccc2CC1 (single isomer, unassigned) [Example 22]
< 50 | CC(c1ccc2scnc2c1)N1CCc2ccccc2CC1 (single isomer, unassigned) [Example 21]
< 50 | CSc1ccc2c(c1)CCN(C(C)c1ccc3scnc3c1)CC2 (racemic) [Example 111]
< 50 | CC(c1ccc2scnc2c1)N1CCc2ccc(OC(F)F)cc2CC1 (racemic) [Example 24, 5-(1-(7-(difluoromethoxy)-1,2,4,5-tetrahydro-3H-benzo[d]azepin-3-yl)ethyl)benzo[d]thiazole]
50 to 200 | COc1ccc2c(c1)CCN(C(C)c1ccc3c(c1)OCC3)CC2 (single isomer, unassigned) [Example 9]
< 50 | CC(c1ccc2scnc2c1)N1CCc2ccc(C#N)cc2CC1 (racemic) [Example 16, 3-(1-(benzo[d]thiazol-5-yl)ethyl)-2,3,4,5-tetrahydro-1H-benzo[d]azepine-7-carbonitrile]
< 50 | CC(c1ccc2scnc2c1)N1CCc2ccc(O)cc2CC1 (racemic) [Example 33, 3-(1-(benzo[d]thiazol-5-yl)ethyl)-2,3,4,5-tetrahydro-1H-benzo[d]azepin-7-ol]
200 to 1000 | CC(c1ccc2scnc2c1)N1CCCc2ncc(NS(=O)(=O)C3CC3)cc2C1 (racemic) [Example 121]
200 to 1000 | CC(c1ccc2scnc2c1)N1CCCc2ncc([N+](=O)[O-])cc2C1 (racemic) [Example 106]
1000 to 10000 | COc1ccc2c(c1)CCN(Cc1ccc3nsnc3c1)C(C)C2 (racemic) [Example 28, 5-((7-methoxy-2-methyl-1,2,4,5-tetrahydro-3H-benzo[d]azepin-3-yl)methyl)benzo[c][1,2,5]thiadiazole]

IC50 [nM] | SMILES
200 to 1000 | CC(c1ccc2scnc2c1)N1CCCc2cc(Br)ccc2C1 (racemic) [Example 13, 5-(1-(7-bromo-1,3,4,5-tetrahydro-2H-benzo[c]azepin-2-yl)ethyl)benzo[d]thiazole]
50 to 200 | COc1ccc2c(c1)CCN(C(C)c1ccc3scnc3c1)CC2O (racemic) [Example 116]
1000 to 10000 | COc1ccc2c(c1)CCN(Cc1ccc3scnc3c1)C(C)C2 (racemic) [Example 29, 5-((7-methoxy-2-methyl-1,2,4,5-tetrahydro-3H-benzo[d]azepin-3-yl)methyl)benzo[d]thiazole]
< 50 | CC(c1ccc2scnc2c1)N1CCc2ccc(S(C)(=N)=O)cc2CC1 (stereo not drawn) [Example 113]
< 50 | CC(c1ccc2scnc2c1)N1CCc2cnc(N)nc2CC1 (racemic) [Example 108]
< 50 | Cc1cc(Oc2ccc3c(c2)CCN(C(C)c2ccc4scnc4c2)CC3)nc(C)n1 (racemic) [Example 62]
< 50 | COc1ccc2c(c1)CCN(C(C)c1ccc3nccnc3c1)CC2 (racemic) [Example 12, 7-methoxy-3-(1-(quinoxalin-6-yl)ethyl)-2,3,4,5-tetrahydro-1H-benzo[d]azepine]
1000 to 10000 | CC(=O)Nc1ncc(CN2CCCc3ccccc3C2C)s1 (racemic) [Example 122]
1000 to 10000 | COc1ccc2c(c1)CCN(Cc1ccc3c(c1)OCCO3)C(C)C2 (racemic) [Example 30, 3-((2,3-dihydrobenzo[b][1,4]dioxin-6-yl)methyl)-7-methoxy-2-methyl-2,3,4,5-tetrahydro-1H-benzo[d]azepine]
< 50 | COc1ccc2c(c1)CCN([C@@H](C)c1ccc3scnc3c1)CC2 [Example 5, (S)-5-(1-(7-methoxy-1,2,4,5-tetrahydro-3H-benzo[d]azepin-3-yl)ethyl)benzo[d]thiazole]
< 50 | CC(c1ccc2scnc2c1)N1CCc2ccc(Oc3cccc(F)n3)cc2CC1 (racemic) [Example 23, 5-(1-(7-((6-fluoropyridin-2-yl)oxy)-1,2,4,5-tetrahydro-3H-benzo[d]azepin-3-yl)ethyl)benzo[d]thiazole]
200 to 1000 | CC(=O)Nc1ccc2c(c1)CCCN(C(C)c1ccc3scnc3c1)C2 (racemic) [Example 107]
200 to 1000 | CC(c1ccc2scnc2c1)N1CCCc2cc(C#N)ccc2C1 (racemic) [Example 15, 2-(1-(benzo[d]thiazol-5-yl)ethyl)-2,3,4,5-tetrahydro-1H-benzo[c]azepine-7-carbonitrile]
1000 to 10000 | CSc1ccc2c(c1)CCN(C(C)c1ccc3scnc3c1)CC2 (single isomer, unassigned) [Example 118]
200 to 1000 | CC(c1ccc2scnc2c1)N1CCCc2cc(S(C)(=O)=O)ccc2C1 (racemic) [Example 17, 5-(1-(7-(methylsulfonyl)-1,3,4,5-tetrahydro-2H-benzo[c]azepin-2-yl)ethyl)benzo[d]thiazole]
< 50 | COc1ccc2c(c1)CCN(C(C)c1ccc3c(c1)OCC3)CC2 (stereo not drawn) [Example 7, 3-(1-(2,3-dihydrobenzofuran-6-yl)ethyl)-7-methoxy-2,3,4,5-tetrahydro-1H-benzo[d]azepine]
200 to 1000 | COc1ccc2c(c1)CCN(C(C)c1ccc3scnc3c1)CC2 (single isomer, unassigned) [Example 6]
< 50 | CSc1ccc2c(c1)CCN(C(C)c1ccc3scnc3c1)CC2 (single isomer, unassigned) [Example 119]

SMILES | IC50 [nM]
CC(C)COc1ccc2c(c1)CCN(C(C)c1ccc3scnc3c1)CC2 (single isomer, unassigned) [Example 27, (R)-5-(1-(7-isobutoxy-1,2,4,5-tetrahydro-3H-benzo[d]azepin-3-yl)ethyl)benzo[d]thiazole or (S)-5-(1-(7-isobutoxy-1,2,4,5-tetrahydro-3H-benzo[d]azepin-3-yl)ethyl)benzo[d]thiazole] | 200 to 1000
CC(C)COc1ccc2c(c1)CCN(C(C)c1ccc3scnc3c1)CC2 (racemic) [Example 26, 5-(1-(7-isobutoxy-1,2,4,5-tetrahydro-3H-benzo[d]azepin-3-yl)ethyl)benzo[d]thiazole] | 200 to 1000
